Experimental data reported in patent publication US20200163984A1, “USE OF ISOVALERYL SPIRAMYCIN I, II AND/OR III IN MANUFACTURING MEDICAMENT FOR TREATING AND/OR PREVENTING TUMOR, AND MEDICAMENT” (SHENYANG FUYANG PHARMACEUTICAL TECHNOLOGY CO., LTD., priority 2017, published 2020).
In brackets after ≈: the same amount, converted by molar mass.

What was measured:
[1] = test system: human tissue lymphoma cell U937; conditions: U937, MTT, 48 h
Method: (§1) The purpose of the assay is to evaluate the in vitro cell proliferation inhibition or cytotoxic activity of a tested sample.
(§2) U937 and HL-60 were suspension cells, and cells in a logarithmic growth phase were selected and prepared into a 2×10^5/ml cell suspension by a RPMI 1640 culture medium containing 10% fetal bovine serum. And the cell suspension was inoculated in a 96-well culture plate, and each well was 50 μL and the 96-well culture plate was cultured at 37° C. and 5% CO2 for 24 hours. 50 μL of a culture medium containing different concentrations of the tested sample isovaleryl spiramycin I, isovaleryl spiramycin II, or isovaleryl spiramycin III was added in the experimental group, while a culture medium containing the same volume of solvent was added into the control group. Each group was set up with 3 parallel wells that were cultured at 37° C. and 5% CO2 for 48 h. And 10 μL of freshly prepared medium containing 5 mg/ml MTT was added into each well for continuous incubation for 4 hours at 37° C. The crystals were dissolved in 100 μL of a triple solution (SDS 10 g, 10 M HCl 0.1 mL, isobutanol 5 mL, diluted with distilled water to 100 mL), and incubated at 37° C. for 12 hours. The optical density value was measured at 492 nm with a microplate reader.
(§3) The inhibition rate of the medicament on tumor cell growth is calculated according to the following formula:
(§4) Tumor cell growth inhibition rate (%)=[A492 (negative control)−A492 (dosing group)]/A492 (negative control)×100%
(§5) And the half-inhibitory concentration (IC50) of the sample is determined therefrom.

[2] = test system: human promyelocytic leukemia cell HL-60; conditions: HL-60, MTT, 48 h
Method: as §1, §2, §3, §4, §5

[3] = test system: transplanted tumor of human renal cell adenocarcinoma cell 769-P; test: 769-P transplanted tumor in nude mice; conditions: for Tumor Volume (mm3) (d 1): d1
Method: Then cell concentration was adjusted to 1×10^7/ml with matrigel, then each nude mouse was inoculated subcutaneously with 0.2 ml of cells at its right armpit and recorded as the first day of inoculation. When the tumor grows to be greater than or equal to 100 mm^3, the mice were randomly divided into 11 groups with 6 mice in each group: a model group, a cyclophosphamide group, isovaleryl spiramycin I groups with doses of 25, 50 and 100 mg/kg, isovaleryl spiramycin II groups with doses of 25, 50 and 100 mg/kg, and isovaleryl spiramycin III groups with doses of 25, 50 and 100 mg/kg. Each group was continuously administered intragastrically for 30 days with a dose of 20 ml/kg. The mice were sacrificed the next day after drug withdrawal and the indicators were tested. The long diameter and short diameter of the tumor, and the weight of each mouse were recorded every 3 days from drug administration to nude mouse sacrifice.
The body weight of the nude mice and the long diameter (a) and short diameter (b) of the transplanted tumor were measured every 3 days, and the tumor volume (v), relative tumor volume (RTV) and relative tumor proliferation rate (T/C) are calculated respectively according to the following formulas, wherein V=a×b^2/2; RTV=V/V0 (V0 is the tumor volume before administration, V is the tumor volume before sacrifice), and T/C (%)=treatment group RTV/model control group RTV×100%.
Each mouse was weighed and sacrificed. After the tumor was completely stripped off from the body of the mouse, the non-tumor tissues such as blood stains and fat were removed to weigh the tumor and calculate the tumor growth inhibition rate. The average tumor weight of each group of mice is used as an indicator of efficacy. Tumor growth inhibition rate (%)=(1−the average tumor weight of the treatment group/the average tumor weight of the model group)×100%.

[4] = test system: transplanted tumor of mouse H22 liver cancer; test: Transplanted tumor of mouse H22 liver cancer; conditions: for Tumor Volume (mm3) (d30): d 30; for Body Weight (g) (d1) / Body Weight (g) (d 7): mouse, in vivo
Method: The H22 cell strains cryopreserved in liquid nitrogen were resuscitated in Kunming mice. After 3 generations, the ascites of Kunming mice were taken and placed in a 50 ml centrifuge tube in which 10 ml of 0.9% normal saline was added, and then centrifuging was performed at 1000 rpm for 5 min at room temperature, and the obtained supernatant was removed. Then 10 ml of 0.9% normal saline was added to the tube to blow and mix well, and then the mixture was diluted to 5×10^6 live cells/ml with normal saline after counting. The tube was stored in ice water, and 75% ethanol was used to disinfect the skin under the right armpits of the mice. Each Kunming mouse was soon inoculated subcutaneously with 0.2 ml of the cells at the armpit of the right forelimb.
In the H22 liver cancer model, the mice inoculated with the tumor were randomly divided into groups with 10 mice in each group on the next day of inoculation. The groups included: a model control group, a positive drug cyclophosphamide control group (CTX, 26 mg/kg), isovaleryl spiramycin I groups with doses of 13, 26 and 52 mg/kg; isovaleryl spiramycin II groups with doses of 13, 26 and 52 mg/kg; isovaleryl spiramycin III groups with doses of 13, 26 and 52 mg/kg. Each group was continuously administered intragastrically for 7 days with a dose of 20 ml/kg.
The tumor-bearing mice were weighed and sacrificed the next day after the last administration. The subcutaneous tumors were dissected and weighed. The average tumor weight of each group is calculated, and the tumor inhibition rate is calculated.
Tumor inhibition rate=(1−T/C)×100%
T: average tumor weight of the drug-administered group; C: average tumor weight of the blank control group.

[5] = 769-P, high dose (100 mg/kg in method) i.g. 30 days
[6] = 769-P, low dose (25 mg/kg in method) i.g. 30 days
[7] = 769-P, medium dose (50 mg/kg in method) i.g. 30 days

Compound: CCC(=O)O[C@@H]1CC(=O)O[C@H](C)C/C=C/C=C/[C@H](O[C@H]2CC[C@H](N(C)C)[C@@H](C)O2)[C@H](C)C[C@H](CC=O)[C@H](O[C@@H]2O[C@H](C)[C@@H](O[C@H]3C[C@@](C)(O)[C@@H](OC(=O)CC(C)C)[C@H](C)O3)[C@H](N(C)C)[C@H]2O)[C@H]1OC [Isovaleryl spiramycin III, isovaleryl spiramycin III]
- IC50 [1]: 15.59 ± 0.08 µg/mL (≈ 15.9 µM)
- IC50 [2]: 21.38 ± 1.75 µg/mL (≈ 21.7 µM)
- Inhibition Rate (%) ([3]; 769-P nude mice, 25 mg/kg): 40.87%
- Relative Tumor Proliferation Rate (T/C) ([3]; 769-P nude mice, 25 mg/kg): 61.59%
- Relative Tumor Volume (RTV) ([3]; 769-P nude mice, 25 mg/kg): 11.37 ± 1.469
- Tumor Weight ([3]; 769-P nude mice, 25 mg/kg): 1.22 ± 0.46 g
- Tumor Volume (mm3) (d 1) ([3]; 769-P nude mice, 25 mg/kg): 146.32 ± 43.02 mm3
- Tumor Volume (mm3) (d30) ([3]; 769-P nude mice, 25 mg/kg): 1663.32 ± 445.50 mm3
- Inhibition Rate (%) ([3]; 769-P nude mice, 50 mg/kg): 60.50%
- Relative Tumor Proliferation Rate (T/C) ([3]; 769-P nude mice, 50 mg/kg): 51.59%
- Relative Tumor Volume (RTV) ([3]; 769-P nude mice, 50 mg/kg): 9.52 ± 1.67
- Tumor Weight ([3]; 769-P nude mice, 50 mg/kg): 0.82 ± 0.06 g
- Tumor Volume (mm3) (d 1) ([3]; 769-P nude mice, 50 mg/kg): 180.43 ± 51.70 mm3
- Tumor Volume (mm3) (d30) ([3]; 769-P nude mice, 50 mg/kg): 1717.76 ± 524.33 mm3
- Inhibition Rate (%) ([3]; 769-P nude mice, 100 mg/kg): 64.46%
- Relative Tumor Proliferation Rate (T/C) ([3]; 769-P nude mice, 100 mg/kg): 36.55%
- Relative Tumor Volume (RTV) ([3]; 769-P nude mice, 100 mg/kg): 6.56 ± 0.28
- Tumor Weight ([3]; 769-P nude mice, 100 mg/kg): 0.73 ± 0.08 g
- Tumor Volume (mm3) (d 1) ([3]; 769-P nude mice, 100 mg/kg): 104.38 ± 12.92 mm3
- Tumor Volume (mm3) (d30) ([3]; 769-P nude mice, 100 mg/kg): 684.88 ± 62.28 mm3
- Relative Tumor Proliferation Rate (T/C) [3, 5]: 35.55%
- tumor growth inhibition rate [3, 5]: 64.46%
- Relative Tumor Proliferation Rate (T/C) [3, 6]: 61.59%
- tumor growth inhibition rate [3, 6]: 40.87%
- tumor volume and relative tumor volume compared with the model group ([3]; 769-P, low, medium and high doses, P<0.05): significantly lower
- Relative Tumor Proliferation Rate (T/C) [3, 7]: 51.59%
- tumor growth inhibition rate [3, 7]: 60.50%
- mouse weight compared with the model group ([3]; mouse, in vivo): no significant changes
- Body Weight (g) (d1) ([3]; mouse, in vivo, 25 mg/kg): 23.09 ± 1.90 g
- Body Weight (g) (d30) ([3]; mouse, in vivo, 25 mg/kg): 22.72 ± 0.78 g
- Body Weight (g) (d1) ([3]; mouse, in vivo, 50 mg/kg): 22.90 ± 1.00 g
- Body Weight (g) (d30) ([3]; mouse, in vivo, 50 mg/kg): 21.43 ± 1.08 g
- Body Weight (g) (d1) ([3]; mouse, in vivo, 100 mg/kg): 20.49 ± 1.14 g
- Body Weight (g) (d30) ([3]; mouse, in vivo, 100 mg/kg): 22.28 ± 1.72 g
- growth of H22 liver cancer in mice ([4]; 13, 26 and 52 mg/kg i.g. 7 days): significantly inhibit
- Relative Tumor Proliferation Rate (T/C) ([4]; dose 12.5 mg/kg): 69.68
- Relative Tumor Volume (RTV) ([4]; dose 12.5 mg/kg): 6.92 ± 1.88
- Tumor Volume (mm3) (d 1) ([4]; dose 12.5 mg/kg): 121.58 ± 13.44 mm3
- Tumor Volume (mm3) (d30) ([4]; dose 12.5 mg/kg): 824.36 ± 143.90 mm3
- Inhibition Rate (%) ([4]; dose 13 mg/kg): 33.55%
- Tumor ([4]; dose 13 mg/kg): 1.01 ± 0.22 g
- Relative Tumor Proliferation Rate (T/C) ([4]; dose 25 mg/kg): 56.90
- Relative Tumor Volume (RTV) ([4]; dose 25 mg/kg): 5.65 ± 1.74
- Tumor Volume (mm3) (d 1) ([4]; dose 25 mg/kg): 118.16 ± 21.72 mm3
- Tumor Volume (mm3) (d30) ([4]; dose 25 mg/kg): 650.32 ± 171.23 mm3
- Inhibition Rate (%) ([4]; dose 26 mg/kg): 44.08%
- Tumor ([4]; dose 26 mg/kg): 0.85 ± 0.34 g
- Relative Tumor Proliferation Rate (T/C) ([4]; dose 50 mg/kg): 43.45
- Relative Tumor Volume (RTV) ([4]; dose 50 mg/kg): 4.31 ± 1.65
- Tumor Volume (mm3) (d 1) ([4]; dose 50 mg/kg): 122.15 ± 49.44 mm3
- Tumor Volume (mm3) (d30) ([4]; dose 50 mg/kg): 468.19 ± 110.04 mm3
- Inhibition Rate (%) ([4]; dose 52 mg/kg): 51.97%
- Tumor ([4]; dose 52 mg/kg): 0.73 ± 0.45 g
- Body Weight (g) (d1) ([4]; 13 mg/kg): 23.67 ± 3.73 g
- Body Weight (g) (d 7) ([4]; 13 mg/kg): 26.33 ± 1.43 g
- Body Weight (g) (d1) ([4]; 26 mg/kg): 24.13 ± 1.46 g
- Body Weight (g) (d 7) ([4]; 26 mg/kg): 27.47 ± 1.21 g
- Body Weight (g) (d1) ([4]; 52 mg/kg): 24.32 ± 1.12 g
- Body Weight (g) (d 7) ([4]; 52 mg/kg): 27.35 ± 0.80 g
